The values that follow are results of earlier work, collected in patent publication US20070098469A1, “Fixing apparatus for nonheat fixing system, and image forming apparatus having fixing apparatus” (priority 2005, published 2007).

For this data set the following is noted: in vivo.
For orientation: LD50 means the dose expected to kill half of the subjects tested. On to `CCOCCOC(=O)CCC(=O)OCCOCC` [Diethoxyethyl succinate], for which the LD50 is 5000 mg/kg.

For `CCO` [Ethanol], the LD50 is 20000 mg/kg.

Regarding `CC(C)COC(=O)CCCCC(=O)OCC(C)C` [Diisobutyl adipate], the LD50 was 12300 mg/kg.

`CCCCOC(=O)CCCCCCCCC(=O)OCCCC` [Di-n-butyle sebacate]: the LD50 was 14900 mg/kg.
